# Data reported in US20140142170A1, “COMPOSITION AND METHOD FOR INFLUENCING ENERGY METABOLISM AND TREATING METABOLIC AND OTHER DISORDERS” (SIRTUIN VALLEY OY, priority 2010, published 2014).
# Entries after “also recorded” stand apart in the source; their conditions may differ.
# Legend:
# phospho-AMPK = phospho-AMPK expression / AMPK activation, immunoblot in 3T3 L1 preadipocytes; format: cell-based; conditions: 24 hours; for phospho-AMPK expression compared to control: 60 μM; for phosphorylated AMPK expression vs control: 3T3L1 preadipocytes, 100 μM
# Procedure: (§1) 3T3L1 cells were purchased from American Type Culture Collection (Manassas, Va., USA) and cultured in DMEM media containing 4.5 g/l glucose supplemented with 10% fetal bovine serum (Hyclone), 2 mM L-glutamine (Gibco), 100 U/ml penicillin, and 100 μg/ml streptomycin (Gibco). The cells were cultured at 37° C. in a humidified atmosphere with 10% CO2.
# (§2) The 3T3L1 cells were plated at 6×10^4 cells/well in 12 well plates and incubated at 37° C. in a humidified atmosphere with 10% CO2. […] The media was removed, cells were washed with PBS, and cell lysates were collected on ice. Proteins were extracted using RIPA buffer along with protease and phosphatase inhibitors. Lysates were centrifuged for 30 min at high speed; supernatant was collected and stored at […] until further analysis. The vehicle controls were 3T3 L1 cells without any treatment with drugs or other compounds. The drugs or compounds that were used in all the experiments were dissolved or diluted in dimethylsulfoxide (DMSO) as diluent. In all experiments, the controls were treated with the same volume of DMSO as was used to dissolve drugs or compounds in compound-treated cells to show and ensure that the actual change in protein expression in different treatments was due solely to the compounds or combination of compounds and not to the DMSO.
# Protein concentrations were measured using a BCA (bicinchoninic acid) protein assay kit (Cat.#23225; Pierce, Rockford, Ill.). Twenty (20) μg/lane of total cellular protein samples containing NuPAGE LDS sample buffer (Invitrogen) and reducing agent were loaded into 4-12% NuPAGE Bis-Tris gels (Invitrogen), subjected to gel electrophoresis, and transferred to polyvinylidene fluoride membranes (Amersham). For SIRT1 proteins, membranes were blocked in 0.05% TBS-Tween with 3% milk for 1 hour, incubated overnight at +4° C. with SIRT1 primary antibodies (Cat.#07-131, Millipore). For phospho-AMPKα and AMPKα proteins, blocking was done for 1 hour in 0.1% TBS-Tween with 5% milk. The membranes were incubated overnight at +4° C. with phospho-AMPKα (Cat. #2535, Cell Signaling) and AMPKα (Cat.#2532, Cell Signaling) primary antibodies. Horseradish peroxidase-conjugated anti-rabbit antibodies (Cat. #NA934V GE Health Care, Amersham, U.K) were used as secondary antibodies. For α-tubulin (loading control), membranes were blocked in 0.05% PBS-Tween with 3% milk for 1 hour, incubated with α-tubulin (Cat.# B-5-1-2, Sigma) primary antibodies for 1 hour at room temperature and horseradish peroxidase-conjugated anti-mouse (Cat. # NA 931V GE Health Care, Amersham, U.K.) IgG antibodies were used as secondary antibodies.
# The membranes were developed using chemiluminescence (ECL plus, GE Health Care), and images were captured in an Image Quant RT-ECL machine (version 1.0.1; GE Health Care). Densitometry and quantification of the bands were done by applying Quantity One software (Bio-Rad). The expression levels of the proteins were normalized to α-tubulin protein levels.
# AMPK = test: total AMPK expression, immunoblot in 3T3L1 preadipocytes; format: cell-based; conditions: 100 μM, 24 hours
# Procedure: as §1
# as §2, with “In all experiments, the controls were treated with the same volume of DMSO as was used to dissolve drugs or compounds in compound-treated cells to show and ensure that the actual change in protein expression in different treatments was due solely to the compounds or combination of compounds and not to the DMSO.” left out
# Protein concentrations were measured using a BCA (bicinchoninic acid) protein assay kit (Cat.#23225; Pierce, Rockford, Ill.). […]
# The membranes were developed using chemiluminescence (ECL plus, GE Health Care), and images were captured in an Image Quant RT-ECL machine (version 1.0.1; GE Health Care). Densitometry and quantification of the bands were done by applying Quantity One software (Bio-Rad). […]
# [1] = system: acetyl-CoA carboxylase (ACC); test: ACC expression, immunoblot in 3T3L1 preadipocytes; format: cell-based; conditions: 100 μM, 24 hours
# [2] = system: mitochondria of 3T3L1 preadipocytes; test: Mitochondrial staining with MitoTracker green, confocal microscopy; format: cell-based; conditions: 60 μM, 24 hours
# Procedure: The 3T3L1 preadipocytes were plated onto Ibidi u-slide 8 well plates at 1.6×10^4 cells/well and incubated at 37° C. in a humidified atmosphere with 10% CO2. The media was removed after 24 hours, the cells were treated with 60 μM GR24 and incubated for 24 hours at 37° C. in a humidified atmosphere with 10% CO2. After 24 hours of treatment, staining of mitochondria was done using 200 nM MitoTracker Mitochondrion-Selective Probes (Green FM probes Cat.#M7514, Invitrogen) according to the manufacturer's instructions. The cells were observed using a confocal microscope and images were taken at 40× oil immersion.
# Preadipocytes were treated with DMSO (Vehicle control) (FIG. 5A), 60 μM resveratrol (FIG. 5B) or 60 μM strigolactone analog GR24 (FIG. 5C) for 24 hours. Next, preadipocytes were stained with MitoTracker green and observed under a confocal microscope at 40× oil immersion. […] The white oval shaped structures are nucleus and the white thread-like structures around the nucleus in the cytoplasm are mitochondria. When compared to the control, there was an increase in mitochondrial biogenesis represented by elongated mitochondria, and an increase in mitochondrial activation represented by the intensity of fluorescence, in cells treated with resveratrol and GR24. […] Thus, GR24 enhances both biogenesis and activity of mitochondria, which is necessary to generate ATP.
# fungal cell = conditions: cited from earlier work
smiles,measurement,setting,value
CC1=CC(O/C=C2/C(=O)O[C@@H]3c4ccccc4C[C@H]23)OC1=O (stereo partly shown) [GR24],AMPK activation (pAMPK/AMPK/α-tubulin ratio) compared to control,"phospho-AMPK; 3T3 L1 preadipocytes, 60 μM each compound",no activation
same,phospho-AMPK expression compared to control,phospho-AMPK; 3T3 L1 preadipocytes,significant increase in expression with resveratrol but not with GR24; also recorded: did not
same,phospho-AMPK expression compared to control,"phospho-AMPK; 3T3 L1 preadipocytes, listed as GR 24",significant increase in expression with resveratrol but not with GR 24
same,phosphorylated AMPK expression vs control,phospho-AMPK,down-regulated
same,phosphorylated AMPK expression vs control,phospho-AMPK; listed as GR 24,down-regulation
same,total AMPK expression vs control,AMPK,down-regulated
same,ACC protein expression vs control,[1],down-regulated
same,"increase in intensity of staining, visibility",[2],clearly visible only in the GR24 treated cells
same,mitochondrial activation (intensity of fluorescence) compared to control,[2],increase
same,mitochondrial biogenesis (elongated mitochondria) compared to control,[2],increase
same,ATP content of the fungal cell,fungal cell,rapid increase
same,NADH concentration,fungal cell,rapid increase
same,NADH dehydrogenase activity,fungal cell,rapid increase
